Values quoted from earlier work in patent publication US20240424000A1, “LONG-ACTING INTRA-ARTICULAR DOSAGE FORMS CONTAINING FLUTICASONE PROPIONATE AND USE THEREOF” (Eupraxia Pharmaceuticals Inc., priority 2023, published 2024).

System: cartilage
Conditions: IA every 12 weeks for 2 years; McAlindon et al. 2017

CC1(C)O[C@@H]2C[C@H]3[C@@H]4CCC5=CC(=O)C=C[C@]5(C)[C@@]4(F)[C@@H](O)C[C@]3(C)[C@]2(C(=O)CO)O1 [TCA, triamcinolone acetonide]
effect of chronic exposure on cartilage: led to increased cartilage loss
